Experimental data taken from patent US4990613A, “(1R,5S,6S)-2-[(6,7-dih ydro-5H-pyrazolo[1,2-a][1,2,4]triazolium-6-yl)]thio-6-[R-1-hydroxyethyl]- 1-methyl-carbapenem-3-carboxylate and intermediate therefor” (Lederle (Japan), Ltd., priority 1987, dated 1991).
≈ marks a conversion by molar mass, not a printed value. Read-outs that look alike come from different tables or passages of the source.

What was measured:
Proteus morganii GN 5375 = experiment: Antibacterial activity against clinically isolated β-lactamase producing strains; type: cell-based; details: Morganella morganii, GN5375
Experimental: (§1) A solution of a cephalosporinase producing strain stored by Episome Research Institute, which was prepared by incubating the strain in a sensitivity test broth (STB; product of Nissui K.K.) for 18 hours, was diluted with a fresh STB solution to contain 10^5 cells per milliliter and the diluted solution was then inoculated as spots with a microplanter on a sensitivity disk agar-N (SDA; product of Nissui K.K.) containing a test compound. The disk agar was then incubated for 18 to 20 hours. A minimum inhibitory concentration was determined as a minimum concentration in which the test microorganism had no longer grown after a 18 to 20 hour incubation.

Proteus vulgaris GN 7919 = experiment: as above; type: cell-based; details: Proteus vulgaris, GN7919
Experimental: as §1

[1] = system: Citrobactor freundii GN 7391; experiment: as above; type: cell-based; details: cephalosporinase producing strain, 18 to 20 hours; read-out: MIC
Experimental: as §1

Serratia marcescens L-65 = experiment: as above; type: cell-based; details: Serratia marcescens, L65; cephalosporinase producing strain, 18 to 20 hours; read-out: MIC
Experimental: as §1

[2] = system: Klebsiella oxytoca GN 10650; experiment: as above; type: cell-based; details: Klebsiella oxytoca, GN10650; cephalosporinase producing strain, 18 to 20 hours; read-out: MIC
Experimental: as §1

Serratia marcescens L-82 = experiment: as above; type: cell-based; details: Serratia marcescens, L82; cephalosporinase producing strain, 18 to 20 hours; read-out: MIC
Experimental: as §1

[3] = system: Providencia rettgeri GN 4430; experiment: as above; type: cell-based; details: Providencia rettgeri, GN4430; cephalosporinase producing strain, 18 to 20 hours; read-out: MIC
Experimental: as §1

[4] = system: Pseudomonas aeruginosa GN 10367; experiment: as above; type: cell-based; details: Pseudomonas aeruginosa, GN10367
Experimental: as §1

Proteus morganii GN 5307 = experiment: as above; type: cell-based; details: Morganella morganii, GN5307; cephalosporinase producing strain, 18 to 20 hours; read-out: MIC
Experimental: as §1

Proteus vulgaris GN 4413 = experiment: as above; type: cell-based; details: Proteus vulgaris, GN4413
Experimental: as §1

[5] = system: Serratia marcescens GN 10857; experiment: as above; type: cell-based; details: Serratia marcescens, GN10857
Experimental: as §1

[6] = system: Citrobactor freundii GN 346; experiment: as above; type: cell-based; details: cephalosporinase producing strain, 18 to 20 hours; read-out: MIC
Experimental: as §1

[7] = system: Enterobacter cloacae GN 5797; experiment: as above; type: cell-based; details: Enterobacter cloacae, GN5797; cephalosporinase producing strain, 18 to 20 hours; read-out: MIC
Experimental: as §1

[8] = system: Providencia rettgeri GN 4762; experiment: as above; type: cell-based; details: Providencia rettgeri, GN4762; cephalosporinase producing strain, 18 to 20 hours; read-out: MIC
Experimental: as §1

[9] = system: Escherichia coli No. 1501; experiment: as above; type: cell-based; details: Escherichia coli, NO.1501; cephalosporinase producing strain, 18 to 20 hours; read-out: MIC
Experimental: as §1

Escherichia coli GN 5482 = experiment: as above; type: cell-based; details: Escherichia coli, GN5482; cephalosporinase producing strain, 18 to 20 hours; read-out: MIC
Experimental: as §1

[10] = system: Pseudomonas cepacia GN 11164; experiment: as above; type: cell-based; details: Burkholderia cepacia, GN11164
Experimental: as §1

[11] = system: Pseudomonas aeruginosa GN 10362; experiment: as above; type: cell-based; details: Pseudomonas aeruginosa, GN10362
Experimental: as §1

[12] = system: Bacillus subtilis ATCC6633; experiment: Antibacterial test, agar plate dilution method; details: Bacillus subtilis, ATCC6633, 18 h
[13] = system: Pseudomonas aeruginosa IFO 3445; experiment: Antibacterial test, agar plate dilution method; details: Pseudomonas aeruginosa, IFO3445, 18 h
[14] = system: Providencia rettgeri IFO 3850; experiment: Antibacterial test, agar plate dilution method; details: Providencia rettgeri, IFO3850, 18 h
[15] = system: Escherichia coli K12 C600; experiment: Antibacterial test, agar plate dilution method; type: cell-based; details: Escherichia coli, K12C600; 37° C., 18 hours, MH agar; read-out: MIC
[16] = system: Streptococcus pyogenes Cook; experiment: Antibacterial test, agar plate dilution method; details: Streptococcus pyogenes, 18 h
[17] = system: Morganella morganii IFO3848; experiment: Antibacterial test, agar plate dilution method; details: Morganella morganii, IFO3848, 18 h
[18] = system: Enterobacter aerougenes ATCC13048; experiment: Antibacterial test, agar plate dilution method; details: Enterobacter, ATCC13048, 18 h
Salmonella typhi 901 = experiment: Antibacterial test, agar plate dilution method; type: cell-based; details: Salmonella enterica, TYPHI, 18 h
[19] = system: Micrococcus luteus ATCC9341; experiment: Antibacterial test, agar plate dilution method; details: Micrococcus luteus, ATCC9341, 18 h
[20] = system: Salmonella paratyphi 1015; experiment: Antibacterial test, agar plate dilution method; type: cell-based; details: Salmonella enterica, PARATYPHI, 18 h
[21] = system: Serratia marcescens IAM1184; experiment: Antibacterial test, agar plate dilution method; details: Serratia marcescens, IAM1184, 18 h
[22] = system: Staphylococcus aureus MS352; experiment: Antibacterial test, agar plate dilution method; details: Staphylococcus aureus, MS352, 18 h
[23] = system: Salmonella typhimurium IID971; experiment: Antibacterial test, agar plate dilution method; details: Salmonella enterica, 18 h
[24] = system: Staphylococcus aureus FDA 209P JC-1; experiment: Antibacterial test, agar plate dilution method; details: Staphylococcus aureus, FDA209P, 18 h
[25] = cephalosporinase producing strain, 18 to 20 hours, read-out: MIC

| SMILES | MIC [1] [µg/mL] | MIC (Serratia marcescens L-65) [µg/mL] | MIC [2] [µg/mL] | MIC (Serratia marcescens L-82) [µg/mL] | MIC [3] [µg/mL] | MIC [4] [µg/mL] | MIC (Proteus morganii GN 5307) [µg/mL] | MIC [6] [µg/mL] | MIC [7] [µg/mL] | MIC [8] [µg/mL] | MIC [9] [µg/mL] | MIC (Escherichia coli GN 5482) [µg/mL] | MIC [12] [µg/mL] | MIC [13] [µg/mL] | MIC [14] [µg/mL] | MIC [15] [µg/mL] | MIC [16] [µg/mL] | MIC [17] [µg/mL] | MIC [18] [µg/mL] | MIC (Salmonella typhi 901) [µg/mL] | also measured |
| --- | --- | --- | --- | --- | --- | --- | --- | --- | --- | --- | --- | --- | --- | --- | --- | --- | --- | --- | --- | --- | --- |
| C[C@@H](O)[C@H]1C(=O)N2C(C(=O)O)=C(SCCN=CN)C[C@H]12 [Imipenem] | 0.78 (≈ 2.61 µM) | 0.39 (≈ 1.3 µM) | 0.2 (≈ 0.668 µM) | 0.2 (≈ 0.668 µM) | 0.39 (≈ 1.3 µM) | 1.56 (≈ 5.21 µM) | 0.78 (≈ 2.61 µM) | 0.39 (≈ 1.3 µM) | 0.39 (≈ 1.3 µM) | 0.39 (≈ 1.3 µM) | 0.1 (≈ 0.334 µM) | 0.1 (≈ 0.334 µM) | 0.025 (≈ 0.0835 µM) | 0.78 (≈ 2.61 µM) | 0.78 (≈ 2.61 µM) | 3.13 (≈ 10.5 µM) | < 0.006 | 0.39 (≈ 1.3 µM) | 0.2 (≈ 0.668 µM) | 0.1 (≈ 0.334 µM) | MIC (Proteus morganii GN 5375): 3.13 µg/mL (≈ 10.5 µM); MIC (Proteus vulgaris GN 7919; [25]): 0.39 µg/mL (≈ 1.3 µM); MIC (Proteus vulgaris GN 4413): 6.25 µg/mL (≈ 20.9 µM); MIC [5]: 3.13 µg/mL (≈ 10.5 µM); MIC [10]: 3.13 µg/mL (≈ 10.5 µM); MIC [11, 25]: 0.78 µg/mL (≈ 2.61 µM); MIC [19]: 0.025 µg/mL (≈ 0.0835 µM); MIC [20]: 1.56 µg/mL (≈ 5.21 µM); MIC [21]: 0.39 µg/mL (≈ 1.3 µM); MIC [22]: 0.013 µg/mL (≈ 0.0434 µM); MIC [23]: 0.39 µg/mL (≈ 1.3 µM); MIC [24]: 0.025 µg/mL (≈ 0.0835 µM) |
| Cc1nnc(SCC2=C(C(=O)O)N3C(=O)[C@@H](NC(=O)Cn4cnnn4)[C@H]3SC2)s1 [CEZ] | > 100 | 0.2 (≈ 0.44 µM) | 0.2 (≈ 0.44 µM) | 0.39 (≈ 0.858 µM) | 0.2 (≈ 0.44 µM) | 3.13 (≈ 6.89 µM) | 0.2 (≈ 0.44 µM) | 25 (≈ 55 µM) | 0.39 (≈ 0.858 µM) | 0.78 (≈ 1.72 µM) | 0.2 (≈ 0.44 µM) | 0.78 (≈ 1.72 µM) | 0.1 (≈ 0.22 µM) | > 100 | 12.5 (≈ 27.5 µM) | 0.78 (≈ 1.72 µM) | 0.1 (≈ 0.22 µM) | 25 (≈ 55 µM) | > 100 | 0.78 (≈ 1.72 µM) | MIC (Proteus morganii GN 5375; [25]): 0.2 µg/mL (≈ 0.44 µM); MIC (Proteus vulgaris GN 7919): 3.13 µg/mL (≈ 6.89 µM); MIC (Proteus vulgaris GN 4413; [25]): 0.2 µg/mL (≈ 0.44 µM); MIC [5, 25]: 0.78 µg/mL (≈ 1.72 µM); MIC [10, 25]: 0.78 µg/mL (≈ 1.72 µM); MIC [11]: 3.13 µg/mL (≈ 6.89 µM); MIC [19]: 0.39 µg/mL (≈ 0.858 µM); MIC [20]: 1.56 µg/mL (≈ 3.43 µM); MIC [21]: > 100 µg/mL; MIC [22]: 0.1 µg/mL (≈ 0.22 µM); MIC [23]: 0.78 µg/mL (≈ 1.72 µM); MIC [24]: 0.2 µg/mL (≈ 0.44 µM) |
